Test [1] in a line: Cytotoxicity against human HeLa cells after 48 hrs by MTT assay. It is filed as functional, cell-based. Background: Tetrazolium assays rely on reduction of a dye to a coloured formazan, in cell work by metabolically active cells.
Test [2] has as its system Staphylococcus aureus. Kind of test: Antibacterial activity against methicillin-resistant Staphylococcus aureus ATCC 43300 after 24 hrs by spectrophotometric analysis. It is filed as functional. The following applies: ATCC 43300, 24 h.
In test [3] the test system is Escherichia coli. Kind of test: Antibacterial activity against Escherichia coli ATCC 25922 after 24 hrs by spectrophotometric analysis. The class given is functional. The following applies: ATCC 25922, 24 h.
The subject of test [4] is Staphylococcus aureus. Description: Antibacterial activity against methicillin-sensitive Staphylococcus aureus ATCC 25923 after 24 hrs by spectrophotometric analysis. It is filed as functional. The settings on record: ATCC 25923, 24 h.

Converted amounts (≈) assume the structure as drawn.

A word on the IC50: it is the concentration at which inhibition is half-maximal. A high value points to weaker potency in that assay. In general, MIC refers to the smallest concentration in the dilution series that meets the test's criterion for growth inhibition.

In the case of `CCCCCC[C@H](C)[C@@H]1CC(=O)NCC(=O)N[C@@H](C(C)C)C(=O)N[C@H](CC(C)C)C(=O)N[C@@H](C)C(=O)N[C@@H](CCSC)C(=O)O1`, in test [1], half-maximal inhibition (IC50) required 31.3 µM.

In test [1], `CCCCCC[C@H](C)[C@@H]1CC(=O)NCC(=O)N[C@@H](C(C)C)C(=O)N[C@H](CC(C)C)C(=O)N[C@@H](C)C(=O)N[C@@H](Cc2ccc(O)cc2)C(=O)O1` had an IC50 of 12.4 µM.

Take `CCCCCC[C@H](C)[C@@H]1CC(=O)NCC(=O)N[C@@H](C(C)C)C(=O)N[C@H](CC(C)C)C(=O)N[C@@H](C)C(=O)N[C@@H](CC(C)C)C(=O)O1`: half-maximal inhibition in test [1] (IC50) was put at 25.7 µM.

As to `O=C(N[C@H](CO)[C@H](O)c1ccc([N+](=O)[O-])cc1)C(Cl)Cl` [CHLORAMPHENICOL], the results for the minimum inhibitory concentration (MIC) in test [2], in test [3] and in test [4] were 4 µg/mL (≈ 12.4 µM), 2 µg/mL (≈ 6.19 µM) and 2 µg/mL (≈ 6.19 µM), respectively.
